According to US20070190004A1, “Substances with a probiotic action used in deodorants” (priority 2004, published 2007):

Legend:
Staphylococcus hominis = assay: Growth of S. hominis in LB liquid culture with test substance, OD (600 nm) versus control; format: cell-based; conditions: for Growth effect, promoting or inhibiting factor compared to the control: S. hominis
Description: (§1) From liquid precultures of S. epidermidis and S. hominis, cultures in LB medium with an optical density OD (600 nm) of 0.05 were inoculated. In parallel to the controls (without the addition of cells or extract), in each case 2 cultures were treated with 1% plant extract and the growth was documented over 30 h by reference to the OD measurement. After 30 h, the difference in the OD of the cultures with extract additive to the corresponding controls (without extract additive, corrected by the value without cells) was determined.
(§2) From liquid precultures of S. epidermidis and S. hominis, cultures in LB medium with an optical density OD (600 nm) of 0.05 were inoculated. In parallel to the controls (without the addition of cells or extract), in each case 2 cultures were treated with 1% plant extract and the growth was documented over 30 h by reference to the OD measurement. After 30 h, the difference in the OD of the cultures with extract additive to the corresponding controls (without extract additive, corrected by the value without cells) was determined. Various hibiscus extracts from Cosmetochem were used, namely “herbasol extract unpreserved carcade in 80% PG,” “carcade (hibiscus) herbasec” and “carcade (hibiscus) herbasol extract oil-soluble.”
as §1, with “myristate),” for “extract),”, “myristate derivative” for “plant extract”, “8” for “30”, “myristate” for “extract”
(§3) From liquid precultures of S. epidermidis and S. hominis, cultures in LB medium with an optical density OD (600 nm) of 0.05 were inoculated. In parallel to the controls [without the addition of cells or ethylhexyl glycerol (Sensiva SC 50, Schülke&Mayr)], in each case 2 cultures were treated with 0.1% ethylhexyl glycerol and the growth was documented over 24 h by reference to the OD measurement. After 4 h, 8 h and 24 h, the difference in the OD of the cultures with ethylhexyl glycerol to the corresponding controls (without extract additive, corrected by the value without cells) was determined.

[1] = test system: Staphylococcus epidermidis; assay: Growth of S. epidermidis in LB liquid culture with test substance, OD (600 nm) versus control; format: cell-based; conditions: for Growth effect, promoting or inhibiting factor compared to the control: S. epidermidis
Description: as §1, §2
as §1, with “myristate),” for “extract),”, “myristate derivative” for “plant extract”, “8” for “30”, “myristate” for “extract”
as §3

[2] = 1% myristate derivative, after 8 h, LB medium, OD 600 nm

CCCCC(CC)COCC(O)CO (stereo not drawn) [ethylhexyl glycerol, 1-(2-Ethylhexyl) glycerol ether]
Effect on growth of S. hominis (in words) (Staphylococcus hominis; 0.1% ethylhexyl glycerol, up to 24 h): inhibits S. hominis
Growth effect, promoting or inhibiting factor compared to the control (Staphylococcus hominis; 0.1% ethylhexyl glycerol, 4 h): 0.87
Growth effect, promoting or inhibiting factor compared to the control (Staphylococcus hominis; 0.1% ethylhexyl glycerol, 8 h): 0.92
Growth effect, promoting or inhibiting factor compared to the control (Staphylococcus hominis; 0.1% ethylhexyl glycerol, 24 h): 0.76
Growth effect, promoting or inhibiting factor compared to the control ([1]; 0.1% ethylhexyl glycerol, 4 h): 1.06
Growth effect, promoting or inhibiting factor compared to the control ([1]; 0.1% ethylhexyl glycerol, 8 h): 1.06
Growth effect, promoting or inhibiting factor compared to the control ([1]; 0.1% ethylhexyl glycerol, 24 h): 1.10

CCCCCCCCCCCCCC(=O)OCC [Ethyl myristate, ethyl myristate]
Effect on growth of S. hominis (in words) (Staphylococcus hominis; 1% myristate derivative, 8 h): inhibiting action on S. hominis
Growth effect, promoting or inhibiting factor compared to the control (Staphylococcus hominis; [2]): 0.22
Effect on growth of S. epidermidis (in words) ([1]; 1% myristate derivative, 8 h): moderate promotion of S. epidermidis
Growth effect, promoting or inhibiting factor compared to the control [1, 2]: 1.44

CCCCCCCCCCCCCC(=O)OC(C)C [Isopropyl myristate, isopropyl myristate]
Effect on growth of S. hominis (in words) (Staphylococcus hominis; 1% myristate derivative, 8 h): inhibiting action on S. hominis
Growth effect, promoting or inhibiting factor compared to the control (Staphylococcus hominis; [2]): 0.50
Effect on growth of S. epidermidis (in words) ([1]; 1% myristate derivative, 8 h): moderate promotion of S. epidermidis
Growth effect, promoting or inhibiting factor compared to the control [1, 2]: 1.24
